From patent US9738655B2, “Tetrahydroisoquinolines containing substituted azoles as factor XIa inhibitors” (BRISTOL-MYERS SQUIBB COMPANY, priority 2013, dated 2017)
Where a name gives a salt, the structure may show the parent alone. Read-outs that look alike come from different tables or passages of the source.

What was measured:
[1] = target: purified human plasma kallikrein (Homo sapiens (Human), UniProt P03952); assay: Plasma kallikrein enzyme inhibition assay (chromogenic substrate S-2302); type: biochemical
Chain of purified human plasma kallikrein (P03952 391-638): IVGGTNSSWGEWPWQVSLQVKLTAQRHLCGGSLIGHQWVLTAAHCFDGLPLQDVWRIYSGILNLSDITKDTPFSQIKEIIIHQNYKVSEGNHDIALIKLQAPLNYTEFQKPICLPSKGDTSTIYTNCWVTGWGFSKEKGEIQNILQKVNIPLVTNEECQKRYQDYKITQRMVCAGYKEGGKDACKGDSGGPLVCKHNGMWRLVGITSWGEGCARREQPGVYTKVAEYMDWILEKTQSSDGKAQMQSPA
Chain of purified human plasma kallikrein (P03952 20-390 partner): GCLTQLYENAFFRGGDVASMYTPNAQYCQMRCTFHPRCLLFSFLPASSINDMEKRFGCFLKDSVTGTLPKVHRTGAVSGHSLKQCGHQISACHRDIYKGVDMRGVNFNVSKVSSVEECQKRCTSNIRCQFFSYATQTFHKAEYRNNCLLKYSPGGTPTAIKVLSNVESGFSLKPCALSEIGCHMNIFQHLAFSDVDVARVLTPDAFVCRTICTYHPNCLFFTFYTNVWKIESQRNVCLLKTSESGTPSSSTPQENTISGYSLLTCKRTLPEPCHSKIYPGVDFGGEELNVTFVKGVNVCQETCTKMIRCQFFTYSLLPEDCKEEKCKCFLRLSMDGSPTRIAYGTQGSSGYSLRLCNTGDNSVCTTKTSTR

[2] = target: purified human Factor XIa (Homo sapiens (Human), UniProt P03951); assay: Factor XIa enzyme inhibition assay (chromogenic substrate S-2366)
Chain of purified human Factor XIa (P03951 388-625): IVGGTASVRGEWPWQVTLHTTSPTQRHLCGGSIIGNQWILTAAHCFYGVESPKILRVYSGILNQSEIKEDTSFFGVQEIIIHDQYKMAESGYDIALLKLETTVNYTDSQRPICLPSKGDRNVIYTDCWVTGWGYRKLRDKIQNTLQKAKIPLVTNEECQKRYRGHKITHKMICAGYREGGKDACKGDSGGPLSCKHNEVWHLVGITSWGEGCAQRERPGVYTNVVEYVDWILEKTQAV
Chain of purified human Factor XIa (P03951 19-387 partner): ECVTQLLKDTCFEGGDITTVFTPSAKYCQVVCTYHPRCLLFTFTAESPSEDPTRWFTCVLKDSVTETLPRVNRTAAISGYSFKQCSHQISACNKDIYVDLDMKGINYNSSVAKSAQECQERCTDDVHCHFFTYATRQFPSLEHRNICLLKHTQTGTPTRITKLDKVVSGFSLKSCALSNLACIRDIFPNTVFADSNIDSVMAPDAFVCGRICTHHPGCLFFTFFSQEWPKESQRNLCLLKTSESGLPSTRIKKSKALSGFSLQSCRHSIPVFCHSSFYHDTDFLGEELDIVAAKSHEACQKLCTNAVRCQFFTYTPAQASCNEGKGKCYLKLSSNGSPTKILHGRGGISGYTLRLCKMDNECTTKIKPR

[3] = measured at 25° C. (no asterisk)
[4] = read-out: Factor XIa Ki, measured at 25° C.
[5] = measured at 25° C. (no asterisk), TFA salt
[6] = read-out: Factor XIa Ki, measured at 25° C., TFA salt

| SMILES | Ki [1, 3] [µM] | Ki [2, 4] [µM] | also measured |
| --- | --- | --- | --- |
| NS(=O)(=O)c1cccc(-c2cccc3c2CCN(C(=O)c2cn(-c4cccc(Cl)c4F)nn2)C3C(=O)Nc2ccc(C(=O)O)cc2)c1 (stereo not shown) [Example 155, 4-(2-(1-(3-chloro-2-fluorophenyl)-1H-1,2,3-triazole-4-carbonyl)-5-(3-sulfamoylphenyl)-1,2,3,4-tetrahydroisoquinoline-1-carboxamido)benzoic acid] | 0.0239 | < 0.005 | – |
| CC(C)(O)C1CCN(c2cccc3c2CCN(C(=O)C2CC(c4cccc(Cl)c4F)=NO2)C3C(=O)Nc2ccc(C(=O)O)cc2)CC1 (stereo not shown) [Example 263, 4-(2-(3-(3-chloro-2-fluorophenyl)-4,5-dihydroisoxazole-5-carbonyl)-5-(4-(2-hydroxypropan-2-yl)piperidin-1-yl)-1,2,3,4-tetrahydroisoquinoline-1-carboxamido)benzoic acid, TFA salt] | – | – | Ki [1, 5]: 0.0681 µM; Ki [2, 6]: 0.0115 µM |
| CN(C)C(=O)C1CCN(c2cccc3c2CCN(C(=O)c2cn(-c4cccc(Cl)c4F)cn2)[C@H]3C(=O)Nc2ccc(C(=O)O)cc2)CC1 (single isomer, unassigned) [Example 62, TFA salt] | 0.399 | 0.0746 | – |
| CN(C)C1CCN(c2cccc3c2CCN(C(=O)c2cnn(-c4cccc(Cl)c4F)c2)C3C(=O)Nc2ccc(OC(F)F)cc2)CC1 (stereo not shown) [Example 96, 2-(1-(3-chloro-2-fluorophenyl)-1H-pyrazole-4-carbonyl)-N-(4-(difluoromethoxy)phenyl)-5-(4-(dimethylamino)piperidin-1-yl)-1,2,3,4-tetrahydroisoquinoline-1-carboxamide, TFA salt] | 0.034 | 0.0203 | – |
| COC(=O)c1ccc2cc(NC(=O)C3c4cccc(-c5cncnc5)c4CCN3C(=O)c3cn(-c4cccc(Cl)c4F)nn3)ccc2n1 (stereo not shown) [Example 128, methyl 6-(2-(1-(3-chloro-2-fluorophenyl)-1H-1,2,3-triazole-4-carbonyl)-5-(pyrimidin-5-yl)-1,2,3,4-tetrahydroisoquinoline-1-carboxamido) quinoline-2-carboxylate, TFA salt] | – | < 0.005 | Ki ([1]; measured at 37° C. (*)): 0.0653 µM |
| CN1CCN(c2cccc3c2CCN(C(=O)c2cn(-c4cccc(Cl)c4F)nn2)C3C(=O)Nc2ccc(C(=O)O)cc2)CC1=O (racemic) [Example 274, 4-(2-(1-(3-chloro-2-fluorophenyl)-1H-1,2,3-triazole-4-carbonyl)-5-(4-methyl-3-oxopiperazin-1-yl)-1,2,3,4-tetrahydroisoquinoline-1-carboxamido)benzoic acid, TFA salt] | 0.00487 | – | Ki [2]: < 0.005 µM |
| CN(C)C1CCN(c2cccc3c2CCN(C(=O)c2cn(-c4cccc(Cl)c4F)nn2)[C@@H]3C(=O)Nc2ccc(C(=O)O)cc2)CC1 (single isomer, unassigned) [Example 49, bis-TFA salt] | 0.00139 | < 0.005 | – |
| O=C(Nc1ccc(-c2ncc[nH]2)cc1)[C@H]1c2cccc(-c3cncnc3)c2CCN1C(=O)c1cn(-c2cccc(Cl)c2F)nn1 [Example 139, (R)-N-(4-(1H-Imidazol-2-yl)phenyl)-2-(1-(3-chloro-2-fluorophenyl)-1H-1,2,3-triazole-4-carbonyl)-5-(pyrimidin-5-yl)-1,2,3,4-tetrahydroisoquinoline-1-carboxamide, TFA salt] | – | 0.133 | Ki ([1]; measured at 37° C. (*)): > 13 µM |
| CN1CCN(c2cccc3c2CCN(C(=O)c2cn(-c4cccc(Cl)c4F)cn2)C3C(=O)Nc2ccc(C(=O)O)cc2)CC1=O (racemic) [Example 284, 4-(2-(1-(3-chloro-2-fluorophenyl)-1H-imidazole-4-carbonyl)-5-(4-methyl-3-oxopiperazin-1-yl)-1,2,3,4-tetrahydroisoquinoline-1-carboxamido)benzoic acid, TFA salt] | 0.00625 | – | Ki [2]: < 0.005 µM |
| CNC(=O)c1ccc(-c2cccc3c2CCN(C(=O)c2cn(-c4cccc(Cl)c4F)nn2)[C@@H]3C(=O)Nc2ccc(C(=O)OC)cc2)cn1 [Example 27, (S)-Methyl 4-(2-(1-(3-chloro-2-fluorophenyl)-1H-1,2,3-triazole-4-carbonyl)-5-(6-(methylcarbamoyl)pyridin-3-yl)-1,2,3,4-tetrahydroisoquinoline-1-carboxamido)benzoate, TFA salt] | – | < 0.005 | Ki ([1]; measured at 37° C. (*)): 0.0468 µM |
| COC1CCN(c2cccc3c2CCN(C(=O)c2cnn(-c4cccc(Cl)c4F)c2N)[C@H]3C(=O)Nc2ccc(C(=O)O)cc2)CC1 [Example 286, (R)-4-(2-(5-amino-1-(3-chloro-2-fluorophenyl)-1H-pyrazole-4-carbonyl)-5-(4-methoxypiperidin-1-yl)-1,2,3,4-tetrahydroisoquinoline-1-carboxamido)benzoic acid, TFA salt] | 3.29 | 0.266 | – |
| COC1CCN(c2cccc3c2CCN(C(=O)C2CC(=O)N(c4cccc(Cl)c4F)C2)C3C(=O)Nc2ccc(C(=O)O)cc2)CC1 (stereo not shown) [Example 255, 4-(2-(1-(3-chloro-2-fluorophenyl)-5-oxopyrrolidine-3-carbonyl)-5-(4-methoxypiperidin-1-yl)-1,2,3,4-tetrahydroisoquinoline-1-carboxamido)benzoic acid, TFA salt] | – | – | Ki [1, 5]: 0.218 µM; Ki [2, 6]: 0.00713 µM |
| O=C(O)c1ccc(NC(=O)C2c3cccc(N4CCN(CC(F)(F)F)CC4=O)c3CCN2C(=O)c2cn(-c3cccc(Cl)c3F)nn2)cc1 (stereo not shown) [Example 197, 4-(2-(1-(3-Chloro-2-fluorophenyl)-1H-1,2,3-triazole-4-carbonyl)-5-(2-oxo-4-(2,2,2-trifluoroethyl)piperazin-1-yl)-1,2,3,4-tetrahydroisoquinoline-1-carboxamido)benzoic acid, TFA salt] | 0.01 | < 0.005 | – |
| CN(C)C1CCN(c2cccc3c2CCN(C(=O)c2cnn(-c4cccc(Cl)c4F)c2)C3C(=O)Nc2ccc(OCC3CCCO3)cc2)CC1 (stereo not shown) [Example 95, 2-(1-(3-chloro-2-fluorophenyl)-1H-pyrazole-4-carbonyl)-5-(4-(dimethylamino)piperidin-1-yl)-N-(4-((tetrahydrofuran-2-yl)methoxy)phenyl)-1,2,3,4-tetrahydroisoquinoline-1-carboxamide, TFA salt] | 0.0169 | 0.0147 | – |
| Cc1ncn(-c2cccc3c2CCN(C(=O)[C@H]2CC(c4cccc(Cl)c4F)=NO2)[C@H]3C(=O)Nc2ccc(C(=O)O)cc2)n1 [Example 251, 4-((R)-2-((R)-3-(3-Chloro-2-fluorophenyl)-4,5-dihydroisoxazole-5-carbonyl)-5-(3-methyl-1H-1,2,4-triazol-1-yl)-1,2,3,4-tetrahydroisoquinoline-1-carboxamido)benzoic acid, TFA salt] | – | 0.0147 | Ki ([1]; measured at 37° C. (*)): 0.601 µM |
| CN1CCN(c2cccc3c2CCN(C(=O)c2cc(-c4cccc(Cl)c4)no2)C3C(=O)Nc2ccc(C(=O)O)cc2)CC1 (stereo not shown) [Example 198, 4-(2-(3-(3-chlorophenyl)isoxazole-5-carbonyl)-5-(4-methylpiperazin-1-yl)-1,2,3,4-tetrahydroisoquinoline-1-carboxamido)benzoic acid, 2 TFA salt] | 0.121 | 0.0495 | – |
| COC1CCN(c2cccc3c2CCN(C(=O)c2cn(-c4cccc(Cl)c4F)nn2)[C@H]3C(=O)Nc2ccc(CO)cc2)CC1 [Example 121, (R)-2-(1-(3-Chloro-2-fluorophenyl)-1H-1,2,3-triazole-4-carbonyl)-N-(4-(hydroxymethyl)phenyl)-5-(4-methoxypiperidin-1-yl)-1,2,3,4-tetrahydroisoquinoline-1-carboxamide] | – | 1.05 | Ki ([1]; measured at 37° C. (*)): 7.9 µM |
